In patent publication US20240262806A1, “INHIBITORS OF NLRP3” (PTC THERAPEUTICS, INC., priority 2021, published 2024):

Test system: NLRP3 inflammasome
Assay: IL-1β Secretion Assay (NLRP3-dependent IL-1β secretion in PMA-differentiated THP-1 cells, nigericin activation, HTRF)
Type: cell-based
Conditions: Homo sapiens, THP-1, THP-1 cells, 100 ng/mL PMA 24 h, compound 20 h, 2.5 μM Nigericin 3 h; read-out: IC50 IL-1β Inhibition
Outline: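 IL-1β release, quantified by HTRF after nigericin activation of the NLRP3 inflammasome, was the read-out. A logistic fit of percent inhibition gave IC50.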

Oc1cc(C(F)(F)F)ccc1-c1nnc(NC[C@@H]2CCCN2)c2ccccc12 [Compound I-68]
IC50: < 1 nM

CN1CCC[C@@H](Nc2nnc(-c3cc(OC(F)(F)F)ccc3C(F)F)c3ccncc23)C1 [Compound I-320]
IC50: 1 to 10 nM

CN1CCC[C@@H](Nc2nnc(-c3c(O)cc(C(F)(F)F)cc3F)c3cccn23)C1 [Compound I-372]
IC50: < 1 nM

CN1C[C@H](F)C[C@@H](Nc2nnc(-c3c(O)cc(OC(F)F)cc3F)c3cccn23)C1 [Compound I-617]
IC50: 1 to 10 nM

OCCN1CCC[C@@H](Nc2nnc(-c3ccc(C(F)(F)F)cc3O)c3cncn23)C1 [Compound I-350]
IC50: 1 to 10 nM

CN1CCC[C@@H](Nc2nnc(-c3ccc(C(F)(F)F)cc3O)c3ccoc23)C1 [Compound I-313, (R)-2-(7-((1-Methylpiperidin-3-yl)amino)furo[2,3-d]pyridazin-4-yl)-5-(trifluoromethyl)phenol]
IC50: < 1 nM

CN1CCC[C@@H](Nc2nnc(-c3ccc(C(F)(F)F)cc3OC3COC3)c3cnccc23)C1 [Compound I-188]
IC50: 10 to 100 nM

C[C@]1(O)C[C@@H](Nc2nnc(-c3ccc(OC(F)(F)F)cc3OC(F)F)c3cccn23)C1 [Compound I-522]
IC50: 10 to 100 nM

C[C@@H](O)CNc1nnc(-c2ccc(C(F)(F)F)cc2O)c2cccn12 [Compound I-588]
IC50: 10 to 100 nM

Oc1cc(C(F)(F)F)ccc1-c1nnc(N[C@@H]2CCCN(CC(F)(F)F)C2)c2cnccc12 [Compound I-283]
IC50: < 1 nM

Cc1cc(O)c(-c2nnc(N[C@@H]3CCCN(C)C3)c3ccccc23)cc1C [Compound I-41]
IC50: 1 to 10 nM

CN1CCC[C@@H](Nc2nnc(-c3ccc(C(F)(F)F)cc3S(N)(=O)=O)c3ccncc23)C1 [Compound I-156, (R)-2-(4-((1-methylpiperidin-3-yl)amino)pyrido[3,4-d]pyridazin-1-yl)-5-(trifluoromethyl)benzene-sulfonamide]
IC50: 100 to 300 nM

Oc1cc(C(F)(F)F)ccc1-c1nnc(N[C@@H]2CCCNC2)n2cccc12 [Compound I-352]
IC50: 1 to 10 nM

CN1CCC[C@@H](Nc2nnc(-c3ccc(Cl)cc3O)c3ccccc23)C1 [Compound I-13]
IC50: < 1 nM

CN1CCC[C@@H](Nc2nnc(-c3ccc(C(F)(F)F)cc3OC(F)F)c3cnccc23)C1 [Compound I-122]
IC50: 1 to 10 nM

CC(CO)N1CCC[C@H](Nc2nnc(-c3ccc(Br)cc3O)c3cccn23)C1 (some centres unmarked) [Compound I-552]
IC50: 1 to 10 nM

Cc1cccc(-c2nnc(N[C@@H]3CCCN(C)C3)c3cnccc23)c1O [Compound I-82]
IC50: < 1 nM

C[C@@H](O)CNc1nnc(-c2ccc(OC(F)(F)F)cc2O)c2cccn12 [Compound I-437]
IC50: 10 to 100 nM

Oc1cc(Cl)ccc1-c1nnc(N[C@@H]2CCCNC2)n2cncc12 [Compound I-435]
IC50: 1 to 10 nM

CN1CCC[C@@H](Nc2nnc(-c3c(O)cc(C4CC4)cc3F)c3c(F)ccn23)C1 [Compound I-601]
IC50: < 1 nM

FC(F)OCCN1CCC[C@@H](Nc2nnc(-c3ccc(C(F)(F)F)cc3OC(F)F)c3cccn23)C1 [Compound I-323, 1-[2-(difluoromethoxy)-4-(trifluoromethyl)phenyl]-N-[(3R)-1-[2-(difluoromethoxy)ethyl]-3-piperidyl]pyrrolo[1,2-d][1,2,4]triazin-4-amine]
IC50: 1 to 10 nM

CCN1CCC[C@@H](Nc2nnc(-c3ccc(OC)cc3C(F)(F)F)c3cccn23)C1 [Compound I-392]
IC50: 1 to 10 nM

Cc1ccc(-c2nnc(N[C@@H]3CCCN(C)C3)n3nc(C)cc23)c(OC(F)(F)F)c1 [Compound I-396, (R)-2-Methyl-4-(4-methyl-2-(trifluoromethoxy)phenyl)-N-(1-methylpiperidin-3-yl)pyrazolo[1,5-d][1,2,4]triazin-7-amine]
IC50: 10 to 100 nM

CN1CCC[C@@H](Nc2nnc(-c3c(O)cccc3C#N)c3ccncc23)C1 [Compound I-140]
IC50: 1 to 10 nM

CN1CCC[C@@H](Nc2nnc(-c3ccc(C(F)(F)F)cc3C(F)F)c3cccn23)C1 [Compound I-426]
IC50: 10 to 100 nM

CCN1C[C@H](F)C[C@@H](Nc2nnc(-c3c(O)cc(C4CC4)cc3F)c3cccn23)C1 [Compound I-576]
IC50: < 1 nM
